Measured values published in patent US20160095843A1, “PYRAZOLOPYRROLIDINE DERIVATIVES AND THEIR USE IN THE TREATMENT OF DISEASE” (NOVARTIS AG, priority 2013, published 2016).

Key:
THP-1 cells = assay: Cell growth inhibition assay (CellTiter-Glo), THP-1; assay type: cell-based; conditions: Homo sapiens
Method in brief: (§1)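 Cellular ATP (CellTiter-Glo luminescence) measured after 4 days at 37° C., 5% CO2 of compound exposure, top concentration 10 μM in 3-fold steps, 0.1% DMSO. Readings corrected for no-cell background and a day-0 plate, normalised to vehicle and medium wells; half-maximal and total growth inhibition from four-parameter curves.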

MV-4-11 cells = assay: Cell growth inhibition assay (CellTiter-Glo), MV-4-11; assay type: cell-based; conditions: Homo sapiens, MV4-11
Method in brief: as §1

K-562 cells = assay: Cell growth inhibition assay (CellTiter-Glo), K-562; assay type: cell-based, human; conditions: for GI50: Homo sapiens, K562
Method in brief: as §1

SMILES | GI50 (THP-1 cells) | GI50 (MV-4-11 cells) | GI50 (K-562 cells) | IC (TGI) (K-562 cells)
Cc1nn(C2CC2)c2c1[C@@H](c1ccc(Cl)cc1)N(c1cc(C)c3nnc(C)n3n1)C2=O [Example 122, (R)-4-(4-chlorophenyl)-1-cyclopropyl-5-(3,8-dimethyl-[1,2,4]triazolo[4,3-b]-pyridazin-6-yl)-3-methyl-4,5-dihydropyrrolo[3,4-c]pyrazol-6(1H)-one] | 4.32 nM | 3.41 nM | 24.1 nM | 
Cc1nn(C2CC2)c2c1[C@H](c1ccc(Cl)cc1)N(c1cc(C)c3nnc(C)n3n1)C2=O [Example 123, (S)-4-(4-chlorophenyl)-1-cyclopropyl-5-(3,8-dimethyl-[1,2,4]triazolo[4,3-b]pyridazin-6-yl)-3-methyl-4,5-dihydropyrrolo-[3,4-c]pyrazol-6(1H)-one] | 5880 nM | 2870 nM | 9400 nM | 
Cc1nn(-c2ccnn2C)c2c1[C@H](c1ccc(Cl)cc1)N(c1cc(C)c3nnc(C)n3c1)C2=O [Example 124, (S)-4-(4-chlorophenyl)-5-(3,8-dimethyl-[1,2,4]triazolo[4,3-a]pyridin-6-yl)-3-methyl-1-(1-methyl-1H-pyrazol-5-yl)-4,5-dihydropyrrolo[3,4-c]pyrazol-6(1H)-one] | 695 nM | 296 nM | 2520 nM | 
Cc1nn(-c2ccnn2C)c2c1[C@@H](c1ccc(Cl)cc1)N(c1cc(C)c3nnc(C)n3c1)C2=O [Example 125, (R)-4-(4-chlorophenyl)-5-(3,8-dimethyl-[1,2,4]triazolo[4,3-a]pyridin-6-yl)-3-methyl-1-(1-methyl-1H-pyrazol-5-yl)-4,5-dihydropyrrolo[3,4-c]pyrazol-6(1H)-one] | 25.8 nM | 18.7 nM | 101 nM | >10000 nM
CC(=O)Nc1cc(N2C(=O)c3c(c(C)nn3C3CC3)C2c2ccc(Cl)cc2)nn2c(C)nnc12 (stereo not shown) [Example 126, N-(6-(4-(4-chlorophenyl)-1-cyclopropyl-3-methyl-6-oxopyrrolo[3,4-c]pyrazol-5-(1H,4H,6H)-yl)-3-methyl-[1,2,4]triazolo[4,3-b]pyridazin-8-yl)acetamide] | 576 nM | 404 nM | 4150 nM | 
COc1ncccc1-n1nc(C)c2c1C(=O)N(c1cc(C)c(=O)n(C)c1)[C@H]2c1ccc(Cl)cc1 [Example 127, (S)-4-(4-chlorophenyl)-5-(1,5-dimethyl-6-oxo-1,6-dihydropyridin-3-yl)-1-(2-methoxypyridin-3-yl)-3-methyl-4,5-dihydropyrrolo-[3,4-c]pyrazol-6(1H)-one] | 4230 nM | 2260 nM | > 10000 nM | 
COc1ncccc1-n1nc(C)c2c1C(=O)N(c1cc(C)c(=O)n(C)c1)[C@@H]2c1ccc(Cl)cc1 [Example 128, (R)-4-(4-chlorophenyl)-5-(1,5-dimethyl-6-oxo-1,6-dihydropyridin-3-yl)-1-(2-methoxypyridin-3-yl)-3-methyl-4,5-dihydropyrrolo-[3,4-c]pyrazol-6(1H)-one] | 64.6 nM | 34.5 nM | 183 nM | >10000 nM
COCc1nn(C2CC2)c2c1C(c1ccc(Cl)cc1)N(c1cc(C)c3nnc(C)n3c1)C2=O (stereo not shown) [Example 130, 4-(4-chlorophenyl)-1-cyclopropyl-5-(3,8-dimethyl-[1,2,4]triazolo[4,3-a]pyridin-6-yl)-3-(methoxymethyl)-4,5-dihydropyrrolo[3,4-c]pyrazol-6(1H)-one] | 35.7 nM | 16.1 nM | 195 nM | >10000 nM
Cc1cc(N2C(=O)c3c(c(CO)nn3C3CC3)C2c2ccc(Cl)cc2)cn2c(C)nnc12 (stereo not shown) [Example 131, 4-(4-chlorophenyl)-1-cyclopropyl-5-(3,8-dimethyl-[1,2,4]triazolo[4,3-a]pyridin-6-yl)-3-(hydroxymethyl)-4,5-dihydropyrrolo-[3,4-c]pyrazol-6(1H)-one] | 59.7 nM | 24.5 nM | 215 nM | >10000 nM
Cc1cc(N2C(=O)c3c(c(CO)nn3C3CC3)C2c2ccc(Cl)cc2)cn(C)c1=O (stereo not shown) [Example 133, 4-(4-chlorophenyl)-1-cyclopropyl-5-(1,5-dimethyl-6-oxo-1,6-dihydropyridin-3-yl)-3-(hydroxymethyl)-4,5-dihydropyrrolo-[3,4-c]pyrazol-6(1H)-one] | 166 nM | 69 nM | 451 nM | 
Cc1cc(N2C(=O)c3nn(C4COC4)c(C)c3C2c2ccc(Cl)cc2)cn(C)c1=O (stereo not shown) [Example 134, 4-(4-chlorophenyl)-5-(1,5-dimethyl-6-oxo-1,6-dihydropyridin-3-yl)-3-methyl-2-(oxetan-3-yl)-4,5-dihydropyrrolo[3,4-c]pyrazol-6(2H)-one] | 161 nM | 117 nM | 574 nM | 
Cc1nn(C2COC2)c2c1C(c1ccc(Cl)cc1)N(c1cc(C)c(=O)n(C)c1)C2=O (stereo not shown) [Example 135, 4-(4-chlorophenyl)-5-(1,5-dimethyl-6-oxo-1,6-dihydropyridin-3-yl)-3-methyl-1-(oxetan-3-yl)-4,5-dihydropyrrolo-[3,4-c]pyrazol-6(1H)-one] | 86.1 nM | 79.9 nM | 616 nM | 
Cc1cc(N2C(=O)c3nn(C4COC4)c(C)c3C2c2ccc(Cl)cc2)cn2c(C)nnc12 (stereo not shown) [Example 136, 4-(4-chlorophenyl)-5-(3,8-dimethyl-[1,2,4]triazolo[4,3-a]pyridin-6-yl)-3-methyl-2-(oxetan-3-yl)-4,5-dihydropyrrolo-[3,4-c]pyrazol-6(2H)-one] | 80.2 nM | 28.2 nM | 335 nM | 
Cc1nn(C2COC2)c2c1C(c1ccc(Cl)cc1)N(c1cc(C)c3nnc(C)n3c1)C2=O (stereo not shown) [Example 137, 4-(4-chlorophenyl)-5-(3,8-dimethyl-[1,2,4]triazolo[4,3-a]pyridin-6-yl)-3-methyl-1-(oxetan-3-yl)-4,5-dihydropyrrolo[3,4-c]pyrazol-6(1H)-one] | 64 nM | 23.1 nM | 248 nM | 
Cc1nn(C2CNC2)c2c1C(c1ccc(Cl)cc1)N(c1cc(C)c(=O)n(C)c1)C2=O (stereo not shown) [Example 138, 1-(azetidin-3-yl)-4-(4-chlorophenyl)-5-(1,5-dimethyl-6-oxo-1,6-dihydropyridin-3-yl)-3-methyl-4,5-dihydropyrrolo[3,4-c]pyrazol-6(1H)-one] | 904 nM | 251 nM | 2060 nM | 
Cc1cc(N2C(=O)c3nn(C4CN(C)C4)c(C)c3C2c2ccc(Cl)cc2)cn(C)c1=O (stereo not shown) [Example 139, 4-(4-chlorophenyl)-5-(1,5-dimethyl-6-oxo-1,6-dihydropyridin-3-yl)-3-methyl-2-(1-methylazetidin-3-yl)-4,5-dihydropyrrolo-[3,4-c]pyrazol-6(2H)-one] | 190 nM | 72.9 nM | 591 nM | 
Cc1nn(C2CN(C)C2)c2c1C(c1ccc(Cl)cc1)N(c1cc(C)c(=O)n(C)c1)C2=O (stereo not shown) [Example 140, 4-(4-chlorophenyl)-5-(1,5-dimethyl-6-oxo-1,6-dihydropyridin-3-yl)-3-methyl-1-(1-methylazetidin-3-yl)-4,5-dihydropyrrolo-[3,4-c]pyrazol-6(1H)-one] | 392 nM | 106 nM | 1370 nM | 
Cc1cc(N2C(=O)c3nn(C(=O)N(C)C)c(C)c3C2c2ccc(Cl)cc2)cn(C)c1=O (stereo not shown) [Example 141] | 281 nM | 136 nM | 1190 nM | 
Cc1nn(C(=O)N(C)C)c2c1C(c1ccc(Cl)cc1)N(c1cc(C)c(=O)n(C)c1)C2=O (stereo not shown) [Example 142] | 239 nM | 79.3 nM | 712 nM | 
